Experimental data as given in patent publication US11118227B2, “Methods of identifying agents having neuroprotective or anti-oxidant activity for regulating mitochondrial function” (THE ROYAL VETERINARY COLLEGE, priority 2015, dated 2021).
“Also recorded” adds a separate entry of the source.

How the values were obtained:
MEF cells [1] = assay: Western blot of mitochondrial protein levels (MTCO-1, β-subunit) in MEF cells; assay type: cell-based, mouse; settings: 24 h; for PMI (Nrf2)-induced reduction of mitochondrial protein levels, on co-administration of sulforaphane: 10 μM PMI & 1 μM sulforaphane; for mitochondrial network / key mitochondrial protein levels by western blot: vs untreated cells
Method: [β-actin is shown as a loading control.
B-actin is shown as a loading control.
(§1) B-actin is shown as a loading control. […].
(§2) (A) Western blot to compare β-subunit, MTCO-1 and TSPO levels in MEFs treated with either DMSO vehicle control, or sulforaphane (1 μM), or PMI (10 μM) either with or without co-administration of UO126 (10 μM) for 24 h. B-actin is shown as a loading control.

MEF cells [2] = assay: Confocal imaging of colocalisation of mitochondria and LC-3 in MEF cells; assay type: cell-based, mouse; settings: 24 hr; for mitochondrial LC3 colocalisation (mitophagy): 1 μM sulforaphane or 10 μM PMI, FIG. 2D
Method: (§3) (D) Representative images of LC3 localization in MEF cells treated with DMSO vehicle control, or 1 μM sulforaphane and/or 10 μM PMI for 24 hr. Scale bar represents 10 μm. A magnification of the merge images is shown in areas demarcated by the white box.
To investigate the effects of sulforaphane in mitophagy, we examined the colocalisation of mitochondria and LC-3 in MEF cells using high-resolution confocal imaging (FIG. 2D).

p62 [3] = settings: MEF cells, 24 h, 1 μM sulforaphane
Method: (A) Representative images of P62 localization in MEF cells treated with DMSO vehicle control, or 1 μM sulforaphane and/or 10 μM PMI for 24 hr. Scale bar represents 10 μm. A magnification of the merge images is shown in areas demarcated by the white box. […].
(§4) The levels and localisation of p62 in MEF cells were then examined by immunoblotting (FIG. 3A).

MEF cells [4] = assay: Western blot of mitochondrial protein ubiquitination in mitochondrial fractions of MEF cells; assay type: cell-based, mouse; settings: 24 h, FIG. 3B
Source text: (B) Western blot of mitochondrial fractions, highlighting mitochondrial ubiquitination in control or sulforaphane and/or PMI-treated MEF cells. B-subunit is shown as a loading control; n=2.
as §4

PARK2 [5] = assay: Western blot of PARK2 in mitochondrial fractions of MEF cells (basal conditions); assay type: cell-based, mouse; settings: 24 h; for levels of PARK2 in mitochondrial fractions: basal, vs vehicle control, FIG. 4A-B
Source text: We therefore examined the ability of PARK2 to translocate to mitochondria either under basal conditions or after Carbonyl cyanide-4-(trifluoromethoxy)phenylhydrazone (FCCP an ionophore) treatment.

PARK2 [6] = assay: Immunocytochemistry of FCCP-induced PARK2 translocation in MEF cells; assay type: cell-based, mouse; settings: 24 hr treatment then FCCP (20 μM) 4 hr, vs vehicle control, FIG. 4E
Method: as §3, with “(E)” for “(D)”, “PARK2” for “LC3”, “control” for “control,”, “24 hr, before and after treatment with FCCP (20 μM) for 4” for “24”

PARK2 [7] = assay: Live imaging of YFP-PARK2 translocation in HeLa cells co-transfected with mt-RFP and YFP-PARK2; assay type: cell-based; settings: for time of FCCP treatment to almost complete co-localisation of PARK2 in mitochondria: YFP-PARK2; for time of FCCP treatment at which PARK2 translocation was initiated: YFP-PARK2, pre- or co-treated
HeLa cells = assay: Western blot of mitochondrial proteins (mitophagy) in HeLa cells; assay type: cell-based; settings: HeLa cells (PARK2 null), after 7 h and 24 h
Source text: as §1

TSPO [8] = assay: Immunoblotting of TSPO levels in MEF cells; assay type: cell-based, mouse; settings: 24 h, 1 μM sulforaphane or 10 μM PMI, vs control
Method: as §2
(B) Graph show MTCO-1:β-actin (B), β-subunit:β-actin (C), TSPO:β-actin ratio band density analysis, n=3.
(§5) TSPO has been recently described as a modulator of mitophagy (Gatliff et al., 2014). We were therefore interested to examine if PMI and sulforaphane alter its accumulation on Mitochondria as well as its transcription levels FIG. 6E.

TSPO mRNA = assay: RT-PCR of TSPO mRNA levels in MEF cells; assay type: cell-based, mouse; settings: 24 h, PMI (10 μM) or sulforaphane (1 μM), vs control
Method: (D) RT-PCR analysis for estimation of TSPO mRNA levels in MEFs following treatment with DMSO, PMI (10 μM) and/or sulforaphane (1 μM). Values are presented as arbitrary units normalized to 18s RNA levels for each sample, n≥3.
as §5

TSPO [9] = assay: TSPO expression in PARK2 null cells (HeLa); assay type: cell-based
MEF cells [10] = settings: 24 h, 1 μM sulforaphane or 10 μM PMI, previously reported work (East et al., 2014), FIG. 1C; cited from earlier work
TSPO [11] = assay: Immunofluorescence and immunoblot of TSPO in SHY-5Y cells treated with PD toxins; assay type: cell-based
Source text: a. Representative immunofluorescence of TSPO in SHY-5Y Cells. Panels b and c: Immunoblot analysis of TSPO expression pattern and ATPB5 in SHY-5Y Cells treated with MPP^+ and 6-OHD.

[12] = biological target: T1, human Keap1 Kelch protein (Homo sapiens, UniProt Q14145); assay: Biochemical experiments on the Keap1-Nrf2 protein-protein interaction with human Keap1 Kelch protein
T1 construct: human Keap1 Kelch protein
T1 sequence (Q14145 321-609 limits assumed): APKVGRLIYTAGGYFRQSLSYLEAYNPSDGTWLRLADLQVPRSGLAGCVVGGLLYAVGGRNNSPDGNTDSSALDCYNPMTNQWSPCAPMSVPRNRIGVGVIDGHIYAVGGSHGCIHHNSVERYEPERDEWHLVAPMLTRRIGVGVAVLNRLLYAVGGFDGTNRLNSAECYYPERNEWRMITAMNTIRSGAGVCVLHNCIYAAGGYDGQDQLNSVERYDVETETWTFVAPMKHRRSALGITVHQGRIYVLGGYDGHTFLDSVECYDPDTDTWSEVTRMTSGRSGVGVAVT
Method: To confirm the mode of action of PMI, a series of biochemical experiments were conducted with human Keap1 Kelch protein.

P62 [13] = settings: East et al 2014, cited from earlier work

Structure (SMILES) | mitochondrial network / key mitochondrial protein levels by western blot (MEF cells [1]) | mitochondrial LC3 colocalisation (mitophagy) (MEF cells [2]) | levels of PARK2 in mitochondrial fractions (PARK2 [5]) | FCCP-induced PARK2 translocation (PARK2 [6]) | time of FCCP treatment to almost complete co-localisation of PARK2 in mitochondria (PARK2 [7]) | time of FCCP treatment at which PARK2 translocation was initiated (PARK2 [7]) | induction of mitophagy (mitochondrial protein levels) (HeLa cells) | levels of TSPO by immunoblotting (TSPO [8]) | levels of TSPO mRNA (RT-PCR) (TSPO mRNA) | expression of TSPO (TSPO [9]) | TSPO expression (TSPO [11]) | other results
C[S+]([O-])CCCCN=C=S (stereo not shown) [sulforaphane] | no significant differences | no induction of mitophagy was observed | reduced compared to the vehicle control | no statistically significant differences | approximately 60 mins | 30 min | induction of mitophagy was observed | no significant differences were observed | statistically significant increase | does not affect the expression of TSPO |  | PMI (Nrf2)-induced reduction of mitochondrial protein levels, on co-administration of sulforaphane (MEF cells [1]): significant normalization of the mitochondrial protein levels; PMI (Nrf2)-induced reduction of mitochondrial protein levels, on co-administration of sulforaphane (MEF cells [1]; listed as Sulforaphane): inhibits the Nrf2-induced reduction of mitochondrial protein levels; mitochondrial LC3 colocalisation attributed to PMI, on addition of sulforaphane (MEF cells [2]; 10 μM PMI plus 1 μM sulforaphane): abolished; levels of p62 in the cytosol (p62 [3]): increased levels of p62 in the cytosol compared to control; translocation of p62 to mitochondria (p62 [3]): impaired and significantly reduced compared to basal conditions; PMI-induced mitochondrial ubiquitination, on co-administration of sulforaphane (MEF cells [4]; PMI plus sulforaphane): abolished the effect attributed to PMI; levels of TSPO by immunoblotting (TSPO [8]; listed as Sulforaphane): does not affect the expression of TSPO; mitochondrial proteins (MTCO-1) by Western blot (MEF cells [10]): an increase in mitochondrial proteins
C[n+]1ccc(-c2ccccc2)cc1 [MPP^+] |  |  |  |  |  |  |  |  |  |  | upregulate TSPO | 
NCCc1cc(O)c(O)cc1O [6-HOD] |  |  |  |  |  |  |  |  |  |  | upregulate TSPO | 
O=[N+]([O-])c1cccc(-c2cn(-c3cccc(I)c3)nn2)c1 [PMI] | reduced mitochondrial network | significantly increased compared to untreated cells | no statistically significant differences | no statistically significant differences | approximately 60 mins | 30 min | induction of mitophagy was observed | reduction in the levels of TSPO; also recorded: decreases TSPO levels in MEFs | reduced compared to control | but not in the cells in which PARK2 is not expressioned such as HeLa cells |  | degradation of the Keap1 Kelch protein [12]: without causing a degradation of the Keap1 Kelch protein; disruption of the protein-protein interaction between Keap1 and Nrf2 [12]: able to disrupt the protein-protein interaction between Keap1 and Nrf2 in a dose-dependent manner; ubiquitination in mitochondrial fractions (MEF cells [4]; vs vehicle control): increased ubiquitination; sulforaphane-reduced PARK2 activity, on addition of PMI (PARK2 [5]; sulforaphane plus PMI): did not alter the reduced activity of PARK2; P62 expression (P62 [13]): upregulates P62 via stabilization of Nrf2; mitophagy (P62 [13]): promotes mitophagy; toxic effects on cells (P62 [13]; at the concentrations used in the assays): does not mediate any apparent toxic effects on cells
